{
  "source": "patent US20080039442A1",
  "about": "“Compounds With Kv4 Ion Channel Activity” (Devgen NV, priority 2004, published 2008)",
  "key": {"[1]": {"biological_target": "hERG potassium channel (Homo sapiens, UniProt Q12809)", "sequence (Q12809 whole entry)": "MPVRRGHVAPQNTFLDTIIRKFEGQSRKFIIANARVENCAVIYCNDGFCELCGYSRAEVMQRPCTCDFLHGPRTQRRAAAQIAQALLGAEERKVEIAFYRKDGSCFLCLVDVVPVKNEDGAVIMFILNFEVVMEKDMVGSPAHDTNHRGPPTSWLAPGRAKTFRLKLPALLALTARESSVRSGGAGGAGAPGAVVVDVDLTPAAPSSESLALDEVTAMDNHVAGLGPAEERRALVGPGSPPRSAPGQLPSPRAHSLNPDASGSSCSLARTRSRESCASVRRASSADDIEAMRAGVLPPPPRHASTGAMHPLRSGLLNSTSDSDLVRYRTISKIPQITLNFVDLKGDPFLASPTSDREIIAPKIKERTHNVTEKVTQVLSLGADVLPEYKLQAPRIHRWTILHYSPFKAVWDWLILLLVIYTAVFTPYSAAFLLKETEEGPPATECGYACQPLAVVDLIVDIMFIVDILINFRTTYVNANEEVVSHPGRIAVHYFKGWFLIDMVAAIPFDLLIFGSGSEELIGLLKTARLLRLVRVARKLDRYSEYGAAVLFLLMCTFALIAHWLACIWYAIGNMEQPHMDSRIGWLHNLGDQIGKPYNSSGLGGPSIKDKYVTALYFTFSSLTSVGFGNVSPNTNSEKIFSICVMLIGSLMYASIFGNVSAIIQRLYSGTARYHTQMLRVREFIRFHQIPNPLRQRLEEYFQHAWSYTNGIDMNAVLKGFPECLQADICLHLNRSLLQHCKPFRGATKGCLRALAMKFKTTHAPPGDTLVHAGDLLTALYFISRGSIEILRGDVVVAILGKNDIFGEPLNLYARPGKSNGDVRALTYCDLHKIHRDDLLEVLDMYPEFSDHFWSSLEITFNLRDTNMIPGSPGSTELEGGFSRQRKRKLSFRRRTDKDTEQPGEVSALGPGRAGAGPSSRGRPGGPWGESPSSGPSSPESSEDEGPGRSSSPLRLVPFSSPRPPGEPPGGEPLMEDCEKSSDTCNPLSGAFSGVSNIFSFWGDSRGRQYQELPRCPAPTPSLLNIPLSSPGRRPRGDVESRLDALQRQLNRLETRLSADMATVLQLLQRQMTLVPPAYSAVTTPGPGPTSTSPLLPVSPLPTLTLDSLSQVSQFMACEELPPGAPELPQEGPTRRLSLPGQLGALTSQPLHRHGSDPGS", "assay": "Whole cell patch clamp, HEK 293 T-REx HERG cells", "details": "10 μM", "text": "For this experiment HEK 293 T-REx HERG cells (#23) were used. This cell line made by IonGate is characterized by the inducible expression of the hERG gene. The T-REx™ System (Invitrogen, Karlsruhe, Germany) is a tetracycline-regulated mammalian expression system that uses regulatory elements from the E. coli Tn10-encoded tetracycline (Tet) resistance operon. In the absence of Tet the expression is repressed. Tetracycline regulation in the T-REx™ System is based on the binding of tetracycline to the Tet repressor and derepression of the promoter controlling expression of the hERG gene. Addition of Tet to the cell culture media results in expression of the hERG potassium channel.\nTo construct the HEK 293 T-REx HERG cell line, the hERG gene was ligated into the inducible expression vector pcDNA4/TO (→pc4TO-HERG) and transfected into HEK 293 T-REx cells (this cell line stably expresses the Tet repressor and was purchased at Invitrogen). Stable cell clones were isolated after selection with Blasticidin (5 μg/ml) and Zeocin™ (300 μg/ml). The clones were electrophysiological characterized after induction with 1 μg/ml Tet.\nExperiments were performed using the patch clamp set-up. Technical equipment needed for manipulation of the cells was placed on a vibration-isolated table and shielded with a Faraday cage to minimize electrical noise. The amplifier and control system were placed in a rack outside the Faraday cage. The system consisted of an EPC9 or EPC10 patch clamp amplifier (HEKA, Lambrecht, Germany), and the perfusion system DADVC8 (ALA Scientific, New York, USA) controlled by the Pulse software package (HEKA, Lambrecht, Germany) installed on a personal computer.\nThe cells used for this experiment were kept in continuous culture under standard conditions (37° C., air supplemented with 5% CO2). The HEK 293 T-REx HERG cells were kept in minimal essential medium (MEM) supplemented with 100 U/ml Penicillin, 100 μg/ml Streptomycin, 10% fetal calf serum (FCS), 1% non-essential amino acids (NEAA), 2.5 μg/ml amphotericin, 300 μg/ml Zeocin™ and 5 μg/ml Blasticidin. Cells were passed every 3-4 days after detachment using a Trypsin solution. The quality of the cultured cells was guaranteed by vitality and contamination tests.\nAt least 18 hours prior to electrophysiological experiments the cells were detached by application of iced PBS (phosphate buffered saline) or Trypsin and replated on cover slips. 1 μg/ml Tet was added to the cells to induce hERG expression.\nActivity of the cardiac hERG channel was investigated using the patch clamp technique in its whole cell mode. This means that the current needed for clamping the whole cell expressing the K^+-channel protein to a specific potential was measured. The pipettes used for patch clamping were made of borosilicate glass. Measurements were performed at room temperature (20-25° C.). In each experiment (i.e. each cell) only one concentration of the compound was investigated—no cumulative dosages were performed. Each cell acted as its own control. The effect of the compounds on hERG mediated currents was investigated at one concentration (10 μM) with two replicates each (c=1, n=2).\nBetween voltage pulses the cell was clamped to a holding potential of −80 mV (inside).\n(b) and (c) were used to characterize the properties of the hERG channel and to check the quality of the individual patch clamp experiment (voltage control). Each test protocol consisted of 6 segments."}, "[2]": {"system": "C. elegans wild-type strain N2", "assay": "Same pumping assay format using C. elegans wild-type strain N2", "format": "in vivo", "details": "read-out: EC50 (μM) N2 worm", "source_text": "The screening of the compounds according to the present invention has been performed in the C. elegans based high-throughput screen for Kv4.3 modulators described above. The method for testing the activity on human Kv4.3 of the compounds according to the invention with C. elegans strains expressing human Kv4.3 for their activity is the same as the method described in WO 03/097682. The method for testing the compounds on wild-type C. elegans strains not expressing human Kv4.3 is the same as the method described in WO 00/63427. Briefly, UG1755 animals have been grown in large numbers and staged young adults (no or only few eggs inside the uterus) have been harvested on the day of screening. Approximately 125 animals in 80 μl buffer have been dispensed per well of a “U” shaped 96-well compound plate. The compound plate contained already compound material at a final concentration of 30 μM in 0.3% DMSO. […] After another four hours of incubation at 20° C., the drinking of C. elegans animals (or the “reaction” as measured by the uptake of CAM) has been stopped by adding 10 μl of a 60 μM ivermectin solution. The fluorescence intensity (counts per second) has been measured 40 minutes after adding ivermectin with the Wallac plate reader at a wavelength of 535 nm (after excitation at 485 nm). […]"}, "[3]": {"biological_target": "T1, human Kv4.3 (Homo sapiens, UniProt Q9UK17)", "T1 construct": "expressed in transfected cells; host or cells: transgenic C. elegans strain UG1755 (plasmid pGV8 integrated; expression in the pharynx)", "T1 sequence (Q9UK17 1-655)": "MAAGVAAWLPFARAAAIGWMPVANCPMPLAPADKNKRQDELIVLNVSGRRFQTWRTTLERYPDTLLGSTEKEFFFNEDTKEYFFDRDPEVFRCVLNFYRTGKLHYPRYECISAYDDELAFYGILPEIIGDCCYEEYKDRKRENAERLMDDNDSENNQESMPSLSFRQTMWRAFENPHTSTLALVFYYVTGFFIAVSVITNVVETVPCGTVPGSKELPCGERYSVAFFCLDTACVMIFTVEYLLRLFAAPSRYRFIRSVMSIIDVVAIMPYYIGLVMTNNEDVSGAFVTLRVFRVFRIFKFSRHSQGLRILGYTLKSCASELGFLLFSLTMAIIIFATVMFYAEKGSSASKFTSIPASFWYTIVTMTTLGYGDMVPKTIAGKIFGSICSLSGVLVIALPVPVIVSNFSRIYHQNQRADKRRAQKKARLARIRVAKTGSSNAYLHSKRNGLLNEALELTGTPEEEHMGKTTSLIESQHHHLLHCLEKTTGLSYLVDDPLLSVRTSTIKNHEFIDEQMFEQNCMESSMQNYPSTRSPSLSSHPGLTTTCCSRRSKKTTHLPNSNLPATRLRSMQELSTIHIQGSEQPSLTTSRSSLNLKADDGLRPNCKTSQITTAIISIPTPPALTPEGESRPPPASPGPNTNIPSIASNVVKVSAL", "assay": "C. elegans based high-throughput screen for Kv4.3 modulators (pharynx pumping, Calcein AM uptake), strain UG1755", "format": "in vivo", "details": "for Ratio N2/Kv4.3: EC50 on N2 divided by EC50 on the Kv4.3 expressing strain, cut-off 1.8; for EC50: transgenic strain expressing human Kv4.3, read-out: EC50 (μM) Kv4.3 worm", "source_text": "A C. elegans based high-throughput screen for Kv4.3 modulators has been used to establish an in vivo SAR (structure-activity relationships: the effect of chemical structure on biological activity) on Kv4.3 for the compounds according to the present invention.\nThis assay has employed a stable transgenic C. elegans strain that functionally expressed human Kv4.3 in the pharynx and a visible selection GFP maker in body-wall muscle.\nThe method to describe the construction of a transgenic C. elegans strain expressing human Kv4.3 has been described in WO 03/097682. Briefly, the actual used strain UG1755 has been generated by microinjection into the gonad of a wild-type strain N2 with a mix of 5 ng/μl plasmid pGV8 (human Kv4.3), 20 ng/μl pDW2821 (GFP-marker) and 40 ng/μl genomic C. elegans DNA. Transgenic animals have been isolated and submitted to integration of the extra-chromosomal array into the genome of C. elegans. A line with 50% transmission of the functional expressed human Kv4.3 has been mutagenized with gamma irradiation using a Cobalt source. About 12000 F2 animals have been singled out and their progeny has been screened for the 100% transmission of the GFP marker. Lines with 100% transmission of GFP have been considered as potentially integrated. These lines have been further tested and out-crossed with N2 strain two-times. All lines obtained have been tested for viability, GFP and human Kv4.3 expression. At the end of a selection process, UG1755 was identified as most suitable C. elegans strain amenable to high throughput screening (HTS). This stable strain has expressed human Kv4.3 as confirmed by electropharyngeograms (EPG) analysis. The method has been described in WO 03/097682. Briefly, dissected pharynxes of UG1755 C. elegans animals have been prepared and Electropharyngeograms (EPGs) have been recorded using an Axopatch-1D amplifier (Axon instruments). Pharynxes have been equilibrated for about 2 minutes in the bath solution (Dent's saline with 0.5% DMSO) until stable EPG recordings have been seen. Compound solution (DMSO or 100 μM Flecamide) has been added to the bath solution. The number of ultra short EPGs (10-20 ms) and normal EPGs (100-200 ms) has been analyzed and given as ratio in percentage. […] In addition standard qRT-PCR confirmed the presence of the human Kv4.3 transgene in UG1755 as well as human Kv4.3 protein has been detected with the human Kv4.3 antibody P 0358 in the pharynx of UG1755 animals. […]\nIntroducing the human Kv4.3 channel into the C. elegans pharynx influences the C. elegans action potential in a characteristic fashion. […] The pumping end-point can be technically translated into a high-throughput read-out by the use of a pro-fluorescent dye. […]"}},
  "note": "Like-named read-outs stand apart in the source and are kept apart here.",
  "data": [
    {"compound": "Cc1c(C(=O)NCc2ccc(F)c(C(F)(F)F)c2)sc2ccc(Cl)cc12", "note": "[Compound 107, 5-chloro-3-methyl-benzo[b]thiophene-2-carboxylic acid 4-fluoro-3-trifluoromethyl-benzylamide]", "values": [
      {"measurement": "hERG (%)", "setting": "[1]", "value": 38, "unit": "%"}
    ]},
    {"compound": "O=C(NCc1ccc(OC(F)(F)F)cc1)c1cc2cc(Cl)ccc2o1", "note": "[Compound 89, 5-chloro-benzofuran-2-carboxylic acid 4-trifluoromethoxy-benzylamide]", "values": [
      {"measurement": "hERG (%)", "setting": "[1]", "value": 39, "unit": "%"}
    ]},
    {"compound": "C[C@@H](NC(=O)c1cc2cc(Cl)ccc2o1)c1ccc([N+](=O)[O-])cc1", "note": "[Compound 1, 5-chloro-benzofuran-2-carboxylic acid [(R)-1-(4-nitro-phenyl)-ethyl]-amide]", "values": [
      {"measurement": "EC50", "setting": "[2]; Caenorhabditis elegans", "value": "> 30", "unit": "µM"},
      {"measurement": "Ratio N2/Kv4.3", "setting": "[3]", "value": ">4.9"},
      {"measurement": "EC50", "setting": "[3]", "value": 6.1, "unit": "µM"}
    ]},
    {"compound": "5-chloro-benzofuran-2- carboxylic acid [3- (10,11-dihydro- dibenzo[a,d]cyclohepten- 5-ylidene)-propyl]- methyl-amide [Compound 5]", "values": [
      {"measurement": "EC50", "setting": "[2]", "value": 24, "unit": "µM"},
      {"measurement": "Ratio N2/Kv4.3", "setting": "[3]", "value": 5.7},
      {"measurement": "EC50", "setting": "[3]", "value": 4.2, "unit": "µM"}
    ]}
  ]
}
